Tests used:
FKBP51 = molecular target: T1, FKBP51 (Homo sapiens, UniProt Q13451); experiment: Fluorescence polarization (FP) assay, binding to the FK506-binding domain of FKBP51; conditions: FK506-binding domain of FKBP51 (FKBP51FK1), competition with fluorescent ligand 2b
T1 sequence (Q13451 42-130 limits assumed): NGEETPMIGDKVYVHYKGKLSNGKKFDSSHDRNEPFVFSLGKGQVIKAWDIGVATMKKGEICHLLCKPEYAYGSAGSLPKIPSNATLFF
Protocol: (§1) In the present invention, in vitro fluorescence polarization assays with the compounds of the general formula (I) were performed to determine the binding affinities to FKBP51 and FKBP52 or to the isolated FK506-binding domains of FKBP51 and FKBP52 ([…]). Binding to the isolated FK506-binding domains is reliably indicative of binding to the full length proteins. The affinities for the isolated FK506-binding domains and for full-length FKBP51 or FKBP52 are the same for all compounds tested so far (Kozany et al, ChemBioChem 2009, 10, 1402-1410).
(§2) Example 11: Fluorescence Polarization (FP) Assays
(§3) In-vitro fluorescence polarization assays were performed to determine the binding affinities for FKBP51 and 52 according to a literature procedure (Kozany, C.; Marz, A.; Kress, C.; Hausch, F., Fluorescent probes to characterise FK506-binding proteins. Chembiochem 2009, 10, (8), 1402-10).
(§4) For fluorescence polarization assays the fluorescent ligand 2b was dissolved in HEPES (20 mm, pH 8), Triton-X100 (0.01%), at double the concentration required for the final sample. The target protein was also diluted in this assay buffer at double the highest concentration required for the final sample. This protein stock was used for a 1:1 serial dilution.
(§5) The fluorescent ligand 2b was diluted in assay buffer to a concentration double the final concentration (20 nM 2b). The inventive compound was dissolved in DMSO to reach a 100-times concentrated stock solution. This was used for a 1:1 serial dilution in DMSO. Every sample of this serial dilution was diluted by a factor of 50 in assay buffer supplemented with ligand 2b to achieve a 2× concentrated mixture of ligand 2b and the inventive compound. To this competitive ligand double the protein concentration for 2b assay: FKBP51FK1 560 nM (2×280 nM) or FKBP52FK1 800 nM (2×400 nM) diluted in assay buffer was added.
(§6) The samples were transferred to black 384-well assay plates (No.: 3575; Corning Life Sciences). After incubation at room temperature for 30 min the fluorescence anisotropy was measured (GENios Pro, Tecan, Männedorf, Switzerland) by using an excitation filters of 485/20 nm and emission filters of 535/25 nm. The binding assays were performed in duplicates in the plate format.
(§7) The competition curves were analyzed by using SigmaPlot9. Data were fitted to a four parameter logistic curve to deduce the IC50 values. For the analysis of K1 values, data were fitted to the following equation (Z. X. Wang, FEBS Lett. 1995, 360, 111-114). A=(Amax−Amin)/[L]t×(([L]t×((2×((Klig+Kcomp+[L]t+[I]t−[R]t)^2−3×(Kcomp×([L]t−[R]t)+Klig×([I]t−[R]t)+[…]))^0.5×COS(ARCCOS((−2×(Klig+Kcomp+[L]t+[I]t−[R]t)^3+9×(Klig+Kcomp+[L]t+[I]t−[R]t)×(Kcomp×([L]t−[R]t)+Klig×([I]t−[R]t)+Klig×Kcomp)−27×(−1×Klig×Kcomp×[R]t))/(2×((((Klig+Kcomp+[L]t+[I]t−[R]t)^2−3×(Kcomp×([L]t−[R]t)+Klig×([I]t−[R]t)+Klig×Kcomp))^3)^0.5)))/3))−(Klig+Kcomp+[L]t+[I]t−[R]t)))/((3×Klig)+((2×((Klig+Kcomp+[L]t+[I]t−[R]t)^2−3×(Kcomp×([L]t−[R]t)+Klig×([I]t−[R]t)+Klig×Kcomp))^0.5×COS(ARCCOS((−2×(Klig+Kcomp+[L]t+[I]t−[R]t)^3+9×(Klig+Kcomp+[L]t+[I]t−[R]t)×(Kcomp×([L]t−[R]t)+Klig×([I]t−[R]t)+Klig×Kcomp)−27×(−1×Klig×Kcomp×[R]t))/(2×((((Klig+Kcomp+[L]t+[I]t−[R]t)^2−3×(Kcomp×([L]t−[R]t)+Klig×([I]t−[R]t)+Klig×Kcomp))^3)^0.5)))/3))−(Klig+Kcomp+[L]t+[I]t−[R]t)))+Amin
(§8) In this equation Klig and Kcomp stand for the Kd values of the used tracer or competing inhibitor, [I]t is referring to the total concentration of the titrated inhibitor.

FKBP52 = molecular target: T2, FKBP52 (Homo sapiens, UniProt Q02790); experiment: Fluorescence polarization (FP) assay, binding to the FK506-binding domain of FKBP52; conditions: FK506-binding domain of FKBP52 (FKBP52FK1), competition with fluorescent ligand 2b
T2 sequence (Q02790 50-138 limits assumed): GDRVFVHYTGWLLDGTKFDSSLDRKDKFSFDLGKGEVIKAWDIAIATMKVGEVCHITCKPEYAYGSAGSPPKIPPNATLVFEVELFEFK
Protocol: as §1, §2, §3, §4, §5, §6, §7, §8

SMILES	Ki (FKBP51) [nM]	Ki (FKBP52) [nM]
COc1ccc(OCCN2C[C@H]([C@H](O)CO)C3CCCC(C2=O)N3S(=O)(=O)c2cc(Cl)cc(Cl)c2)cc1OC (stereo partly drawn) [C2(C2a/b), (1S,5S,6R)-10-((3,5-dichlorophenyl)sulfonyl)-5-(1,2-dihydroxyethyl)-3-(2-(3,4-dimethoxyphenoxy)ethyl)-3, 10-diazabicyclo[4.3.1]decan-2-one]	≤ 100	≤ 100
COCCN1C[C@H](C(C)(C)O)[C@H]2CCC[C@@H](C1=O)N2S(=O)(=O)c1cc(Cl)cc(Cl)c1 [Compound B3, (1S,5S,6R)-10-((3,5-dichlorophenyl)sulfonyl)-5-(2-hydroxypropan-2-yl)-3-(2-methoxyethyl)-3,10-diazabicyclo[4.3.1]decan-2-one]	≤ 100	≤ 100
COCCN1C[C@H]([C@H](C)O)[C@H]2CCC[C@@H](C1=O)N2S(=O)(=O)c1cc(Cl)cc(Cl)c1 [Compound B7, (1S,5S,6R)-10-((3,5-dichlorophenyl)sulfonyl)-5-((S)-1-hydroxyethyl)-3-(2-methoxyethyl)-3,10-diazabicyclo[4.3.1]decan-2-one]	≤ 100	≤ 100
COCCN1C[C@H](CCO)[C@H]2CCC[C@@H](C1=O)N2S(=O)(=O)c1cc(Cl)cc(Cl)c1 [Compound B8, (1S,5S,6R)-10-((3,5-dichlorophenyl)sulfonyl)-5-(2-hydroxyethyl)-3-(2-methoxyethyl)-3,10-diazabicyclo[4.3.1]decan-2-one]	100 to 500	100 to 500
COCCN1C[C@H](C=O)[C@H]2CCC[C@@H](C1=O)N2S(=O)(=O)c1cc(Cl)cc(Cl)c1 [Compound B9, (1S,5S,6R)-10-((3,5-dichlorophenyl)sulfonyl)-3-(2-methoxyethyl)-2-oxo-3,10-diazabicyclo[4.3.1]decane-5-carbaldehyde]	100 to 500	100 to 500
COCCN1C[C@H](C(N)=O)[C@H]2CCC[C@@H](C1=O)N2S(=O)(=O)c1cc(Cl)cc(Cl)c1 [Compound B11, (1S,5S,6R)-10-((3,5-dichlorophenyl)sulfonyl)-3-(2-methoxyethyl)-2-oxo-3,10-diazabicyclo[4.3.1]decane-5-carboxamide]	100 to 500	100 to 500
CNC[C@H]1CN(CCOC)C(=O)[C@@H]2CCC[C@H]1N2S(=O)(=O)c1cc(Cl)cc(Cl)c1 [Compound B12, (1S,5S,6R)-10-((3,5-dichlorophenyl)sulfonyl)-3-(2-methoxyethyl)-5-((methylamino)methyl)-3,10-diazabicyclo[4.3.1]decan-2-one]	100 to 500	100 to 500
CC[C@H]1CN(CCOC)C(=O)[C@@H]2CCC[C@H]1N2S(=O)(=O)c1cc(Cl)cc(Cl)c1 [Compound B15, (1S,5S,6R)-10-((3,5-dichlorophenyl)sulfonyl)-5-ethyl-3-(2-methoxyethyl)-3,10-diazabicyclo[4.3.1]decan-2-one]	≤ 100	≤ 100
CCOCCN1C[C@H](C(O)CO)[C@H]2CCC[C@@H](C1=O)N2S(=O)(=O)c1cc(Cl)cc(Cl)c1 (stereo partly drawn) [Compound C3, (1S,5S,6R)-10-((3,5-dichlorophenyl)sulfonyl)-5-(1,2-dihydroxyethyl)-3-(2-ethoxyethyl)-3,10-diazabicyclo[4.3.1]decan-2-one]	100 to 500	100 to 500
COc1ccc(OCCN2C[C@H](C(C)(C)O)[C@H]3CCC[C@@H](C2=O)N3S(=O)(=O)c2cc(Cl)cc(Cl)c2)cc1OC [Compound D3, (1S,5S,6R)-10-((3,5-dichlorophenyl)sulfonyl)-3-(2-(3,4-dimethoxyphenoxy)ethyl)-5-(2-hydroxypropan-2-yl)-3,10-diazabicyclo[4.3.1]decan-2-one]	≤ 100	≤ 100
COc1ccc(OCCN2C[C@H](CCO)[C@H]3CCC[C@@H](C2=O)N3S(=O)(=O)c2cc(Cl)cc(Cl)c2)cc1OC [Compound D8, (1S,5S,6R)-10-((3,5-dichlorophenyl)sulfonyl)-3-(2-(3,4-dimethoxyphenoxy)ethyl)-5-(2-hydroxyethyl)-3,10-diazabicyclo[4.3.1]decan-2-one]	≤ 100	≤ 100
O=C1NC[C@H](O)[C@H]2CCC[C@@H]1N2S(=O)(=O)c1cc(Cl)cc(Cl)c1 [Compound G6, (1S,5S,6R)-10-((3,5-dichlorophenyl)sulfonyl)-5-hydroxy-3,10-diazabicyclo[4.3.1]decan-2-one]	500 to 1000	100 to 500
N[C@@H]1CNC(=O)[C@@H]2CCC[C@H]1N2S(=O)(=O)c1cc(Cl)cc(Cl)c1 [Compound H1.2, (1S,5R,6R)-5-amino-10-((3,5-dichlorophenyl)sulfonyl)-3,10-diazabicyclo[4.3.1]decan-2-one]	1000 to 5000	1000 to 5000
CO[C@H]1CN(C)C(=O)[C@@H]2CCC[C@H]1N2S(=O)(=O)c1cc(Cl)cc(Cl)c1 [Compound H1.3, (1S,5S,6R)-10-((3,5-dichlorophenyl)sulfonyl)-5-methoxy-3-methyl-3,10-diazabicyclo[4.3.1]decan-2-one]	500 to 1000	500 to 1000
O=C1NC[C@@H](O)[C@H]2CCC[C@@H]1N2S(=O)(=O)c1cc(Cl)cc(Cl)c1 [Compound H1.4, (1S,5R,6R)-10-((3,5-dichlorophenyl)sulfonyl)-5-hydroxy-3,10-diazabicyclo[4.3.1]decan-2-one]	1000 to 5000	1000 to 5000
COCCO[C@H]1CN(CCOC)C(=O)[C@@H]2CCC[C@H]1N2S(=O)(=O)c1cc(Cl)cc(Cl)c1 [Compound H2.1, (1S,5S,6R)-10-((3,5-dichlorophenyl)sulfonyl)-5-(2-methoxyethoxy)-3-(2-methoxyethyl)-3,10-diazabicyclo[4.3.1]decan-2-one]	100 to 500	100 to 500
COCO[C@H]1CNC(=O)[C@@H]2CCC[C@H]1N2S(=O)(=O)c1cc(Cl)cc(Cl)c1 [Compound H2.2, (1S,5S,6R)-10-((3,5-dichlorophenyl)sulfonyl)-5-(methoxymethoxy)-3,10-diazabicyclo[4.3.1]decan-2-one]	500 to 1000	500 to 1000
COc1ccc(OCCN2C[C@H](O)[C@H]3CCC[C@@H](C2=O)N3S(=O)(=O)c2cc(Cl)cc(Cl)c2)cc1OC [Compound H2.3, (1S,5S,6R)-10-((3,5-dichlorophenyl)sulfonyl)-3-(2-(3,4-dimethoxyphenoxy)ethyl)-5-hydroxy-3,10-diazabicyclo[4.3.1]decan-2-one]	≤ 100	100 to 500
C=C[C@@H]1CN(CCCCOC)C(=O)[C@@H]2CCC[C@H]1N2S(=O)(=O)c1cc(Cl)cc(Cl)c1 [Compound J3, (1S,5R,6R)-10-((3,5-dichlorophenyl)sulfonyl)-3-(4-methoxybutyl)-5-vinyl-3,10-diazabicyclo[4.3.1]decan-2-one]	500 to 1000	500 to 1000
O=C1[C@@H]2CCC[C@H]([C@H](CO)CN1CCCO)N2S(=O)(=O)c1cc(Cl)cc(Cl)c1 [Compound J5, (1S,5R,6R)-10-((3,5-dichlorophenyl)sulfonyl)-5-(hydroxymethyl)-3-(3-hydroxypropyl)-3,10-diazabicyclo[4.3.1]decan-2-one]	500 to 1000	500 to 1000

Reference: patent US9914732B2, “Diazabicyclo[4.3.1]decane derivatives for treatment of psychiatric disorders” (Max-Planck-Gesellschaft zur Forderung der Wissenschaften …, priority 2014, dated 2018)
